Assays:
[1] = tested on: YS strain (TK^+ -VZV); assay: Anti-VZV activity, plaque reduction in human fetal pulmonary cells, YS strain; format: cell-based, varicella-zoster virus; conditions: nonresistant strain of VZV (YS, TK^+); human fetal pulmonary cell monolayer, approximately 20 PFU, 5 days at 37 °C, plaque count
Experimental: (§1) Next, the anti-VZV effect of OXT-G will be described in detail by reference to the following Test Example. Anti-VZV activity: • (1) Determination method A monolayer of human fetal pulmonary cells, which had been grown in Eagle minimum essential medium containing 10 % of newborn calf serum, 60 µg/ml of kanamycin and 0.075 % of NaHCO₃, (used as a growth medium) in a 96-well microplate, was inoculated with approximately 20 PFU of various viruses and incubated at 37 °C for 2 hours. After 0.1 ml of 2 % newborn calf serum containing OXT-G was freshly supplied, the incubation was continued at 37 °C for 5 days. Plaques in each well were counted under a microscope and the ratio (%) thereof to the plaque count of a control (no addition) was calculated to prepare a graph. Based on the graph, the median effective dose (ED₅₀) was determined. The employed virus stains were as follows: YS strain: TK^+ strain (carrying thymidine kinase) isolated from a patient of varicella (TK^+ -VZV). […] Thus it is expected as an excellent anti-VZV agent.

[2] = tested on: YSR strain (TK^- -VZV); assay: Anti-VZV activity, plaque reduction in human fetal pulmonary cells, YSR strain; format: cell-based, varicella-zoster virus; conditions: resistant strain of VZV (YSR, TK^-, drug-resistant); human fetal pulmonary cell monolayer, approximately 20 PFU, 5 days at 37 °C, plaque count
Experimental: as §1

[3] = Single-dose intraperitoneal toxicity in the mouse; format: in vivo; conditions: 400 mg/kg intraperitoneally, once
Excerpt: OXT-G and a pharmacologically acceptable salt thereof are each characterized by a low toxicity and a low cumulative toxicity upon repeated administration.

Nc1nc2c(ncn2C2OC(CO)C2CO)c(=O)[nH]1 (stereo not drawn) [OXT-G, oxetanocin-G]
antiviral effects [1]: excellent antiviral effects
antiviral effects [2]: excellent antiviral effects
symptom of intoxication [3]: no symptom of intoxication could be observed

Source: patent EP0430108A2, “Use of oxetanocin-G for the treatment of varicella-zoster virus infections” (priority 1989, dated 1991)
